Assay results as given in patent US20210267996A1, “Compounds for inhibition of inflammation” (Children`s Medical Center Corporation, priority 2018, published 2021).
Entries after “also recorded” stand apart in the source; their conditions may differ.

How the values were obtained:
caspase-11 = molecular target: T1, caspase-11 (Mus musculus, UniProt P70343); experiment: Caspase-11 inhibition assay (Ac-YVAD-AMC); type: biochemical
T1 construct: made in house; host or cells: Sf9 (baculovirus)
T1 sequence (P70343 81-373): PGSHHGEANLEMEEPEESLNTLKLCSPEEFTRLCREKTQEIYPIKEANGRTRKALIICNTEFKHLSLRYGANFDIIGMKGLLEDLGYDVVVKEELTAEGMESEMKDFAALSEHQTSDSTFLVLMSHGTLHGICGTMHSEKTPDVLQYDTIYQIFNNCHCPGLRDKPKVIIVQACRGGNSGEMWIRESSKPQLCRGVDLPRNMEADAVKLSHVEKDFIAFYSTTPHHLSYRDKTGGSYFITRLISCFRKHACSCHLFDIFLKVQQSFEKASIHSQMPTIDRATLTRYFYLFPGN
Procedure: Caspase-1 and caspase-11 inhibition assays: the fluorogenic assay for caspase-1 and caspase-11 activity is based on release of 7-amino-4-methylcoumarin (AMC) from the caspase substrate Ac-YVAD-AMC. Compounds (8 nM-50 μM) were incubated with 0.5 U of caspase-1 or caspase-11 for 30 min in assay buffer (20 mM HEPES, 150 mM NaCl) in 384-well plates (Corning 3820) before addition of Ac-YVAD-AMC (40 μM) to initiate the reactions. Reactions were monitored in a SpectraMax M5 plate reader (Molecular Devices, Sunnyvale, Calif. USA) with excitation/emission wavelengths at 350/460 nm. The fluorescence intensity of each reaction was recorded every 2 min for 2 hrs.
Fluorescence intensity at 460 nm was measured after excitation at 350 nm.

ASC specks = experiment: ASC speck formation in LPS-primed THP-1 cells plus nigericin; type: cell-based, human; details: for ASC speck formation: 1 hr before nigericin
Procedure: Immunostaining and confocal microscopy: cells grown on coverslips were fixed for 15 min with 4% paraformaldehyde in PBS, permeabilized for 5 min in 0.1% Triton X-100 in PBS and blocked using 5% BSA for 1 hr. Then, cells were stained with the indicated primary antibodies followed by incubation with fluorescent-conjugated secondary antibodies (Jackson ImmunoResearch). Nuclei were counterstained with DAPI (4,6-diamidino-2-phenylindole) (Sigma-Aldrich). Slides were mounted using Aqua-Poly/Mount (Dako). Images were captured using a laser scanning confocal microscope (Olympus Fluoview FV1000 Confocal System) with a 63× water immersion objective and Olympus Fluoview software (Olympus). All confocal images are representative of three independent experiments.
Nigericin activates the assembly of the NLRP3 canonical inflammasome using an adaptor called apoptosis-associated speck-like protein containing a caspase recruitment domain (ASC), which can be visualized in immunofluorescent microscopy as specks. When LPS-primed THP-1 cells were treated with nigericin in the absence of inhibitors, ASC specks were detected in 30% of cells (FIG. 36). As expected, speck formation was not inhibited by z-VAD-fmk, since caspase activation occurs downstream of inflammasome assembly.
(§1) Cell death was determined by CytoTox96 assay. […] Cell death was determined by CytoTox96 assay. […] Shown are immunoblots of whole cell lysates harvested 0.5 hr later. […] Representative images of ASC specks (arrowheads) and mean±s.d. percent of cells with ASC specks analyzed 20 min later (FIG. 47). Whole cell lysates (WCL) and culture supernatants (Sup) were harvested 30 min after adding nigericin and immunoblotted with the indicated antibodies (FIG. 50). Caspase-1 activity was assayed 30 min after adding nigericin using a cell-permeable fluorescence dye FAM-YVAD-FMK (FIG. 52). […] Representative images of ASC specks (arrowheads) and mean±s.d. percent of cells with ASC specks analyzed 20 min later (FIGS. 48 and 49). Whole cell lysates (WCL) and culture supernatants (Sup), harvested 30 min after adding nigericin, were analyzed by immunoblot (FIG. 51). […] The Figures show representative confocal microscopy images and quantification of proportion of cells with GSDMD membrane staining and pyroptotic bubbles. Arrows indicate GSDMD staining of pyroptotic bubbles. […] FIGS. 57 and 58, dose response curve of the effect of Bay 11-7082 on caspase-1 (FIG. 57) and caspase-11 (FIG. 58) activity against a fluorescent peptide substrate. […] (FIG. 60). FIGS. 61 and 62 show dose response curve of the effect of Bay 11-7082 on liposome leakage induced by 0.3 μM human GSDMD-3C (FIG. 61) or mouse GSDMA3-3C (FIG. 62) plus 0.15 μM 3C protease. […] 2-fold dilutions of Bay 11-7082 from 5-40 μM were used. Graphs show the mean±s.d; data are representative of three independent experiments. *P<0.05, **P<0.01.

[1] = test system: caspase-1, GSDMD, and pro-IL-1β; experiment: Caspase-1, GSDMD, pro-IL-1β cleavage and IL-1β secretion by immunoblot, THP-1; type: cell-based, human; details: 30 μM; for caspase-1, GSDMD and pro-IL-1β cleavage: 30 min after nigericin
Procedure: Immunoblot analysis: cell extracts were prepared using RIPA buffer (50 mM Tris-HCl pH 7.4, 150 mM NaCl, 1 mM EDTA, 1% Triton X-100, 0.1% SDS, 0.5% deoxycholate) supplemented with a complete protease inhibitor cocktail (Roche) and a PhosSTOP phosphatase inhibitor cocktail (Roche). Samples were subjected to SDS-PAGE and the resolved proteins were then transferred to a PVDF membrane (Millipore). Immunoblots were probed with indicated antibodies and visualized using a SuperSignal West Pico chemiluminescence ECL kit (Pierce).
To assess which steps in NLRP3-mediated inflammation were inhibited post ASC speck formation, LPS-primed THP-1 cells were treated with vehicle or 30 μM z-VAD-fmk, disulfiram or Bay 11-7082 1 hr before adding nigericin, and cleavage and activation of caspase-1, GSDMD, and pro-IL-1β were analysed by immunoblot of whole cell lysates 30 min later (FIG. 50). Secretion of processed IL-1β was also assessed by immunoblot of culture supernatants. […] Because immunoblots are not quantitative, caspase-1 activity 30 min after adding nigericin was also assessed using a fluorescent substrate in intact cells. […] Next, the effect of z-VAD-fmk, disulfiram and Bay 11-7082 on LPS+nigericin-induced GSDMD pore formation was assessed by immunofluorescence microscopy using a monoclonal antibody that was generated that recognizes both uncleaved GSDMD and its pore form (FIGS. 53, 54, and 64-66). In the absence of any inhibitor, the GSDMD antibody stained both the cytosol and the plasma membrane of LPS plus nigericin treated cells, which formed characteristic pyroptotic bubbles (See Reference 10). […] Thus, disulfiram and Bay 11-7082 inhibit multiple steps leading to canonical inflammasome-induced pyroptosis and inflammatory cytokine release, including priming, inflammasome assembly, inflammatory caspase activation, pro-inflammatory cytokine processing and GSDMD pore formation.
as §1
Canonical inflammasome assembly activates caspase-1, which cleaves pro-IL-1β and GSDMD, and the latter is needed to release processed IL-1β and to induce pyroptosis. […]

Structure (SMILES)	IC50 (caspase-11)	effect of Cu(II) on caspase-11 inhibition (caspase-11; with Cu(II))	ASC puncta (ASC specks; 1 μM with copper gluconate)	cells with ASC specks (ASC specks; 30 μM, 1 hour before nigericin)	ASC speck formation (ASC specks; 30 μM)	caspase-1, GSDMD and pro-IL-1β cleavage ([1]; listed as disulfiram)	processing of caspase-1, GSDMD and pro-IL-1β ([1]; 60 min after nigericin)	processed IL-1β in culture supernatants ([1]; listed as disulfiram)	times less active against caspase-11 than disulfiram (caspase-11)	processed IL-1β in culture supernatants [1]	caspase-1, GSDMD and pro-IL-1β cleavage [1]
CCN(CC)C(=S)SSC(=S)N(CC)CC [C-23, Tetraethylthiuram disulfide]	730 ± 70 nM	did not strongly change	reduced ASC puncta	about 20 % of cells	inhibited ASC speck formation, but not completely	dramatically reduced; also recorded: processing was reduced	caught up with what was detected in the absence of inhibitors	only detected in the culture supernatants in the absence of any inhibitor; also recorded: completely inhibited cytokine release	–	–	–
Cc1ccc(S(=O)(=O)/C=C/C#N)cc1 [Bay 11-7082]	–	–	–	–	inhibited ASC speck formation, but not completely	–	–	–	about 3 fold	only detected in the culture supernatants in the absence of any inhibitor	dramatically reduced
